Source: patent publication US20040043503A1, “Automatic mass spectrometry analytical system for the quantitative detection of organic toxicant exposure in the human body” (priority 2002, published 2004)

Experiment: S-PMA concentration in urine samples from neonates and adults, by automatic mass spectrometry analytical system (on-line C18 cartridge, ESI-MS/MS)
Assay type: in vivo, human
Experimental: The collected urine samples were passed through 0.2 μm filtration membranes. An aliquot of 400 μL of filtered urine was firstly mixed with […] of 20% acetic acid and 100 μL of 1000 μg/L internal standard (IS), N-t-BOC-S-(p-methyl-benyl)-L-cysteine, with a known amount of S-PMA added when spiking experiments were performed, and diluted with 1400 μL of deionized water. From the total volume of 2000 μL, 200 μL of aliquot was injected into the analytical system (FIG. 1) for analysis. No other sample pretreatment procedures were performed or required other than the filtration described above. This can greatly simplify preparation procedures and save time.
Samples were loaded onto the C18 cartridge 2 (particle size 3 μm) by the pump 10 of autosampler 1 (as shown in FIG. 1) using 100% water at 0.6 mL/min, and were washed with 100% water for optimization time of 12 minutes (1.0, 2.0, 3.0, 4.0, 5.0, 6.0, 7.0, 8.0, 10.0, 12.0, 13.0, 14.0). This is to remove highly hydrophilic components of the urine samples to avoid interference with the subsequent detection results of spectrometry 4. The switching unit 3 (valve) was then activated to the Elute position and the sample was eluted with 1.0 mL/min 100% methanol provided by pump 10′ from cartridge 2 into the mass spectrometry 4 for analysis.
The mass spectrometry used in this invention is the API 365 Triple Quadrupole MS/MS.
Using the process described in Embodiment 1 above, this invention was used to establish the optimal experimental mode of quantitative detection of organic toxicant exposure in the human body using an automatic mass spectrometry analytical system. This Embodiment is to analyze the S-PMA concentration in urine samples collected from six neonates and six adults in the same hospital; the results are listed in Table 1. In the automatic mass spectrometry analytical system of this invention, each analysis took less than 18 minutes, and therefore 80 urine samples could be analyzed within 24 hours.

With `CC(=O)NC(CSc1ccccc1)C(=O)O` (centres unmarked) [S-PMA, S-phenyl mercapturic acid] the “S-PMA” value (Adult 1, non-smoker) was 0.560 µg/L, the “S-PMA” value (Adult 2, non-smoker) was 1.268 µg/L and the “S-PMA” value (Adult 3, non-smoker) was 1.411 µg/L. For the same compound, the “S-PMA” value (Adult 4, non-smoker) was 4.196 µg/L, the “S-PMA” value (Adult 5, non-smoker) was 0.993 µg/L and the “S-PMA” value (Adult 6, non-smoker) was 1.255 µg/L. The “S-PMA” value (Neonate 1) was 0.249 µg/L, the “S-PMA” value (Neonate 2) was 0.345 µg/L and the “S-PMA” value (Neonate 3) was 0.322 µg/L. The “S-PMA” value (Neonate 4) was 0.365 µg/L, the “S-PMA” value (Neonate 5) was 0.356 µg/L and the “S-PMA” value (Neonate 6) was 0.348 µg/L. The “S-PMA Arithmetic Mean” value (six adults, non-smokers) was 1.614 µg/L and the “S-PMA Arithmetic Mean” value (six neonates) was 0.331 µg/L.
